Here are results for twelve compounds from patent US20170334899A1, “AMINO-SUBSTITUTED ISOTHIAZOLES” (Bayer Pharma Aktiengesellschaft, priority 2014, published 2017).

Assay type in all cases: cell-based
One assay relates to DU145. Kind of assay: Proliferation assay (crystal violet), DU145. Particulars: Homo sapiens, DU-145, 96 h; DU145 cells; 4 days incubation; crystal violet staining; read-out: IC50 inhibition of proliferation, DU145. How it is done:
(§1) Cultivated tumor cells (cells were ordered from ATCC, except HeLa-MaTu and HeLa-MaTu-ADR, which were ordered from EPO-GmbH, Berlin) were plated at a density of 1000 to 5000 cells/well, depending on the growth rate of the respective cell line, in a 96-well multititer plate in 200 μL of their respective growth medium supplemented 10% fetal calf serum. After 24 hours, the cells of one plate (zero-point plate) were stained with crystal violet (see below), while the medium of the other plates was replaced by fresh culture medium (200 μl), to which the test substances were added in various concentrations (0 μM, as well as in the range of 0.001-10 μM; the final concentration of the solvent dimethyl sulfoxide was 0.5%). The cells were incubated for 4 days in the presence of test substances. Cell proliferation was determined by staining the cells with crystal violet: the cells were fixed by adding 20 μl/measuring point of an 11% glutaric aldehyde solution for 15 minutes at room temperature. After three washing cycles of the fixed cells with water, the plates were dried at room temperature. The cells were stained by adding 100 μl/measuring point of a 0.1% crystal violet solution (pH 3.0). After three washing cycles of the stained cells with water, the plates were dried at room temperature. The dye was dissolved by adding 100 μl/measuring point of a 10% acetic acid solution. Absorbtion was determined by photometry at a wavelength of 595 nm. The change of cell number, in percent, was calculated by normalization of the measured values to the aborbtion values of the zero-point plate (=0%) and the absorbtion of the untreated (0 μm) cells (=100%). The IC50 values were determined by means of a 4 parameter fit.

In another assay the test system is HeLa-MaTu-ADR. The assay is described as follows: Proliferation assay (crystal violet), HeLa-MaTu-ADR. The note with it: 96 h; HeLa-MaTu-ADR cells; 4 days incubation; crystal violet staining; read-out: IC50 inhibition of proliferation, HeLa-MaTu-ADR. As to the method:
as §1

For a further assay, the system named is Caco-2. Kind of assay: Proliferation assay (crystal violet), Caco-2. The note with it: Homo sapiens, 96 h; Caco-2 cells; 4 days incubation; crystal violet staining; read-out: IC50 inhibition of proliferation, Caco2. How it is done: as §1
A further assay concerns NCI-H460. The assay is described as follows: Proliferation assay (crystal violet), NCI-H460. Particulars: Homo sapiens, 96 h; NCI-H460 cells; 4 days incubation; crystal violet staining; read-out: IC50 inhibition of proliferation, NCI-H460. As to the method: as §1
For another assay, the system named is B16F10. The assay is described as follows: Proliferation assay (crystal violet), B16F10. The note with it: Mus musculus, B16-F10, 96 h; B16F10 cells; 4 days incubation; crystal violet staining; read-out: IC50 inhibition of proliferation, B16F10. As to the method:
as §1

Take `Cc1nsc(Nc2cnc(C(F)(F)F)cn2)c1C(=O)Nc1ccc(OC2CCN(CCF)CC2)nc1` [Example 7, N-(6-{[1-(2-Fluoroethyl)piperidin-4-yl]oxy}pyridin-3-yl)-3-methyl-5-{[5-(trifluoromethyl)pyrazin-2-yl]amino}-1,2-thiazole-4-carboxamide]: the IC50 was 1.4 µM with DU145; 0.52 µM in the assay with HeLa-MaTu-ADR; 0.92 µM in the assay on Caco-2; 0.81 µM in the assay on NCI-H460; 1.5 µM in the assay with B16F10.
The corresponding values for `Cc1nsc(Nc2cnc(C(F)(F)F)cn2)c1C(=O)Nc1ccc(OC2CCN(CC(F)F)CC2)nc1` [Example 8, N-(6-{[1-(2,2-Difluoroethyl)piperidin-4-yl]oxy}pyridin-3-yl)-3-methyl-5-{[5-(trifluoromethyl)pyrazin-2-yl]amino}-1,2-thiazole-4-carboxamide] are 0.25 µM, 0.11 µM, 0.15 µM, 0.1 µM and 0.21 µM.
Consider `Cc1nsc(Nc2cnc(C(F)(F)F)cn2)c1C(=O)Nc1ccc(OC2CCN(CC(F)(F)F)CC2)nc1` [Example 9, -Methyl-N-(6-{[1-(2,2,2-trifluoroethyl)piperidin-4-yl]oxy}pyridin-3-yl)-5-{[5-(trifluoromethyl)pyrazin-2-yl]amino}-1,2-thiazole-4-carboxamide], for which the IC50 with DU145 came out at 0.3 µM; in the assay with HeLa-MaTu-ADR, 0.13 µM; with Caco-2, 0.16 µM; with NCI-H460, 0.098 µM; with B16F10, 0.19 µM.
For `Cc1nsc(Nc2cnc(C(F)(F)F)cn2)c1C(=O)Nc1ccc(OC2CCN(CCC(F)(F)F)CC2)nc1` [Example 10, 3-Methyl-5-{[5-(trifluoromethyl)pyrazin-2-yl]amino}-N-(6-{[1-(3,3,3-trifluoropropyl)-piperidin-4-yl]oxy}pyridin-3-yl)-1,2-thiazole-4-carboxamide] the same measures were 0.14 µM, 0.057 µM, 0.18 µM, 0.17 µM and 0.3 µM.
As for `Cc1nsc(Nc2cncc(C(F)(F)F)n2)c1C(=O)Nc1ccc(OC2CCN(C(=O)OC(C)(C)C)CC2)nc1` [Example 12, tert-Butyl 4-[(5-{[(3-methyl-5-{[6-(trifluoromethyl)pyrazin-2-yl]amino}-1,2-thiazol-4-yl)carbonyl]amino}pyridin-2-yl)oxy]piperidine-1-carboxylate], the IC50 was determined as 1.1 µM with DU145; 0.64 µM in the assay on HeLa-MaTu-ADR; 0.47 µM in the assay with Caco-2; 0.27 µM in the assay on NCI-H460; 0.4 µM in the assay with B16F10.
With `Cc1nsc(Nc2cnc(C(F)(F)F)cn2)c1C(=O)Nc1ccc(C(=O)OC(C)(C)C)cc1` [Example 96, tert-Butyl 4-{[(3-methyl-5-{[5-(trifluoromethyl)pyrazin-2-yl]amino}-1,2-thiazol-4-yl)carbonyl]amino}benzoate], the IC50 came to 0.8 µM in the assay on DU145; 0.41 µM in the assay with HeLa-MaTu-ADR; 0.33 µM in the assay on Caco-2; 0.74 µM in the assay on NCI-H460; 1.1 µM with B16F10.
For `Cc1nsc(Nc2ccc(C#N)cn2)c1C(=O)Nc1ccc(C(=O)OC(C)(C)C)cc1` [Example 98, tert-Butyl 4-[({5-[(5-cyanopyridin-2-yl)amino]-3-methyl-1,2-thiazol-4-yl}carbonyl)-amino]benzoate], the IC50 in the assay on DU145 turned out to be 0.46 µM; in the assay on HeLa-MaTu-ADR, 0.15 µM; in the assay on Caco-2, 0.11 µM; with NCI-H460, 0.17 µM; with B16F10 it was 0.46 µM.
As for `Cc1nsc(Nc2cnc3ccccc3n2)c1C(=O)Nc1cccc(-c2nc(C(C)(C)C)no2)c1` [Example 108, N-[3-(3-tert-Butyl-1,2,4-oxadiazol-5-yl)phenyl]-3-methyl-5-(quinoxalin-2-ylamino)-1,2-thiazole-4-carboxamide], the IC50 in the assay on DU145 was 0.57 µM; with HeLa-MaTu-ADR it was 0.33 µM; in the assay on Caco-2 it was 0.3 µM; in the assay on NCI-H460, 0.29 µM; in the assay with B16F10, 0.7 µM.
The corresponding values for `Cc1nsc(Nc2cnc(C(F)(F)F)cn2)c1C(=O)Nc1ccc(OCC2CCN(C(=O)OC(C)(C)C)C2)nc1` (stereo not drawn) [Example 109, tert-Butyl 3-{[(5-{[(3-methyl-5-{[5-(trifluoromethyl)pyrazin-2-yl]amino}-1,2-thiazol-4-yl)carbonyl]amino}pyridin-2-yl)oxy]methyl}pyrrolidine-1-carboxylate] are 0.66 µM, 0.17 µM, 0.28 µM, 0.23 µM and 0.35 µM.
With `Cc1nsc(Nc2cncc(C(F)(F)F)n2)c1C(=O)Nc1ccc(OCC2CCN(C(=O)OC(C)(C)C)C2)nc1` (stereo not drawn) [Example 110, tert-Butyl 3-{[(5-{[(3-methyl-5-{[6-(trifluoromethyl)pyrazin-2-yl]amino}-1,2-thiazol-4-yl)carbonyl]amino}pyridin-2-yl)oxy]methyl}pyrrolidine-1-carboxylate], the IC50 is 2 µM in the assay with DU145; 0.95 µM in the assay on HeLa-MaTu-ADR; 1.5 µM in the assay on Caco-2; 0.36 µM in the assay with NCI-H460; 0.8 µM in the assay with B16F10.
Take `Cc1nsc(Nc2cnc3ccccc3n2)c1C(=O)Nc1ccc(Oc2cccc(C(F)(F)F)c2)nc1` [Example 117, 3-Methyl-5-(quinoxalin-2-ylamino)-N-{6-[3-(trifluoromethyl)phenoxy]pyridin-3-yl}-1,2-thiazole-4-carboxamide]: the IC50 in the assay with DU145 is 0.31 µM; in the assay with HeLa-MaTu-ADR it was 0.66 µM; in the assay on Caco-2, 0.1 µM; in the assay with NCI-H460, 0.3 µM; in the assay with B16F10, 0.73 µM.
For `Cc1nsc(Nc2ccc(C#N)cn2)c1C(=O)Nc1ccc(Oc2cccc(C(F)(F)F)c2)nc1` [Example 118, 5-[(5-Cyanopyridin-2-yl)amino]-3-methyl-N-{6-[3-(trifluoromethyl)phenoxy]pyridin-3-yl}-1,2-thiazole-4-carboxamide] the same measures were 0.75 µM, 0.32 µM, 0.34 µM, 0.48 µM and 0.38 µM.
